Source: patent US9814796B2, “Methods for sterilization and/or disinfection” (P[…] OF NEVADA, LLC, priority 2015, dated 2017)
Like-named read-outs stand apart in the source and are kept apart here.

Experiments:
[1] = test system: Bacillus atrophaeus ATCC 9372 spores; details: 28% hydrogen peroxide, 65° C.
From the text: The mixture was then serially ten-fold diluted in saline and spread-plated on tryptic soy agar.

[2] = test system: Bacillus atrophaeus ATCC 9372 spores; details: conventional usage regime; cited from earlier work
[3] = test system: Bacillus atrophaeus ATCC 9372 spores; test: Efficacy usage regimes of hydrogen peroxide and peracetic acid as compared to performic acid; type: cell-based; details: performic acid regime per Table 3
Protocol: For example, temperatures greater than about 55° C. to 65° C. and exposure times greater than about fifteen seconds may be employed in conventional techniques.

OO [Hydrogen Peroxide, hydrogen peroxide]
contact time per one logarithm of spore inactivation [1]: seven | Efficacy usage regime: Temperature [2]: 65 °C | Efficacy usage regime: Time [2]: 15 to 30 s

CC(=O)OO [Peracetic Acid, peracetic acid]
Efficacy usage regime: Temperature [2]: 55 °C | Efficacy usage regime: Time [2]: 15 s

performic acid
Efficacy usage regime: Temperature [3]: Room Temperature | Efficacy usage regime: Time [3]: 5 s
